6 compounds from ChEMBL document CHEMBL5465560, “Selectivity Literature for EUbOPEN Chemogenomic Library” (2024) can be followed below.

In assay [1] the target is T1, Rhodopsin kinase GRK1 (Homo sapiens) (UniProt Q15835).
T1 sequence (whole entry): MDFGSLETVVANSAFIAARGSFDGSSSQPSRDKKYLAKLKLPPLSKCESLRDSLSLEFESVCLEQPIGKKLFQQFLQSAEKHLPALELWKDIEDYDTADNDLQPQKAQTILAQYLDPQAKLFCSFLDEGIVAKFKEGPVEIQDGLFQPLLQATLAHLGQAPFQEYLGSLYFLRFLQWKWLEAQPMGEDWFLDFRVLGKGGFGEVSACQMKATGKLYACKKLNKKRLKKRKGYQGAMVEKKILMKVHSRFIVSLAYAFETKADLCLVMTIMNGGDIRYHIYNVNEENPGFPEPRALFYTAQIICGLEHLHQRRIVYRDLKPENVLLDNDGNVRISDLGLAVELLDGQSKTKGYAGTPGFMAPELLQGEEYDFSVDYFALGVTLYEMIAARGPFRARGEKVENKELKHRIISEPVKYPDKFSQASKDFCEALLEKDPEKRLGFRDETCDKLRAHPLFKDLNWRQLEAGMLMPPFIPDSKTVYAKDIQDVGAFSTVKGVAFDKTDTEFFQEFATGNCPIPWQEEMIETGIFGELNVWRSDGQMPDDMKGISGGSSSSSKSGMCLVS
The assay is described as follows: Selectivity interaction (KinomeScan (DiscoverX)) EUB0000666a GRK1. The note with it: at 10 µM.

Assay [2] deals with T2, Non-receptor tyrosine-protein kinase TNK1 (Homo sapiens) (UniProt Q13470).
T2 sequence (whole entry): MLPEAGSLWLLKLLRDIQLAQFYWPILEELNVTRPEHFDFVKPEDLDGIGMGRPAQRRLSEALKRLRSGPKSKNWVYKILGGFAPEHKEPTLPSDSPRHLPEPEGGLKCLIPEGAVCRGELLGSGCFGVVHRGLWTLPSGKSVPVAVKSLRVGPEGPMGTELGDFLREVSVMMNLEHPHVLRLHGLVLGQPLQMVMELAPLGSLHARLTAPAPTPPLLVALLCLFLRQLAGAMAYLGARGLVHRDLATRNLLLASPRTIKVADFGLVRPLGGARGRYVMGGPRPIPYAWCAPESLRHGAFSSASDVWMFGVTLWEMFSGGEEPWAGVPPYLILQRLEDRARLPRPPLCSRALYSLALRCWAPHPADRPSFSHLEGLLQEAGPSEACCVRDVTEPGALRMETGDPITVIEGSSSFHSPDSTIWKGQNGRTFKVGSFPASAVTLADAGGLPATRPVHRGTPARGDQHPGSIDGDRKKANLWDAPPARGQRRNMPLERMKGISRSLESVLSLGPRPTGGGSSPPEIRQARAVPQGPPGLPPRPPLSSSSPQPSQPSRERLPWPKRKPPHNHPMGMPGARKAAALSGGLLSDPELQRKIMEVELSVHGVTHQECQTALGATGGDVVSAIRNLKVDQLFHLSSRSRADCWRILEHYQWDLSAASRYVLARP
Description: Selectivity interaction (ProQinase) EUB0000171b TNK1.

For assay [3], the target named is Bromodomain testis-specific protein (Homo sapiens) (UniProt Q58F21). The assay is described as follows: Selectivity interaction (Bromodomain panel (DSF asssay)) EUB0000270b BRDT.
The target of assay [4] is T3, Phosphatidylinositol 3-kinase C2 domain-containing subunit gamma (Homo sapiens) (UniProt O75747).
T3 sequence (whole entry): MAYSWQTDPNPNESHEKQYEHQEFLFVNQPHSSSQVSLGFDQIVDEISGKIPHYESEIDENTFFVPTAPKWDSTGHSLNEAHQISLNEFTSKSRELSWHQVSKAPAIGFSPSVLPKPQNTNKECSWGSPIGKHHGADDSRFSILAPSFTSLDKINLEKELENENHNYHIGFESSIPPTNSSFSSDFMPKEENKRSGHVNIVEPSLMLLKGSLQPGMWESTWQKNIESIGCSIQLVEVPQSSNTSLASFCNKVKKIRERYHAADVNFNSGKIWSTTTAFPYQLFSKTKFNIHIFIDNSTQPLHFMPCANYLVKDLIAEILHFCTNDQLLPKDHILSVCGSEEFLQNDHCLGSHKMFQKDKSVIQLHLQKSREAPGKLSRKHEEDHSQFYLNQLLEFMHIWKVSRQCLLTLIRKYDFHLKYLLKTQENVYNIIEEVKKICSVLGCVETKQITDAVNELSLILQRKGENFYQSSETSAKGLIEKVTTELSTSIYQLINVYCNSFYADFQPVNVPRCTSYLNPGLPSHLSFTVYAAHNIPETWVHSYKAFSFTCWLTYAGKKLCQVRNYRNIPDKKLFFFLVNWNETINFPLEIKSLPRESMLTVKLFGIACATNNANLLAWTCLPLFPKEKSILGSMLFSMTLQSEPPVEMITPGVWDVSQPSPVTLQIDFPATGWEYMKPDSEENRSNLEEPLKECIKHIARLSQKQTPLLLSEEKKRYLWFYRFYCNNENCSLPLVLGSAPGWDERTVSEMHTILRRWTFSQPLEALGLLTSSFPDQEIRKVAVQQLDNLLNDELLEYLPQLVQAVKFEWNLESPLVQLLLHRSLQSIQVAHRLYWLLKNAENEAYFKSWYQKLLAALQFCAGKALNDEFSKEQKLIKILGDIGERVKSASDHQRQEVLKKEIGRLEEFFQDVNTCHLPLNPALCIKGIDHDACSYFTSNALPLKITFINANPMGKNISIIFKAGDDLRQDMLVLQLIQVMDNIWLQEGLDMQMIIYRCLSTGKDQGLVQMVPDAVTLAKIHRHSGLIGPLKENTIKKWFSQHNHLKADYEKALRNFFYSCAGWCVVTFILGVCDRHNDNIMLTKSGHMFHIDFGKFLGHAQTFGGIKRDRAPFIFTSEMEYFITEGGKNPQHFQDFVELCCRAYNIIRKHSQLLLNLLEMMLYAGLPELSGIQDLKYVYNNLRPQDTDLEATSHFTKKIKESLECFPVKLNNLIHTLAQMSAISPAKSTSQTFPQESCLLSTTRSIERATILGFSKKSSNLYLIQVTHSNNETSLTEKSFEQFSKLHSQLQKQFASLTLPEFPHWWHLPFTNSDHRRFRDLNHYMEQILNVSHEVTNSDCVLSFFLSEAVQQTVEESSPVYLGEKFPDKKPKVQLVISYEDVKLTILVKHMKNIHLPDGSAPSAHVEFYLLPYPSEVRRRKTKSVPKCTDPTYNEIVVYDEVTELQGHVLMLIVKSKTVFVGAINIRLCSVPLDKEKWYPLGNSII
The assay is described as follows: Selectivity interaction (KinomeScan (DiscoverX)) EUB0000618a PIK3C2G. The following applies: at 10 µM.

The target of assay [5] is Cyclin-dependent kinase 15 (Homo sapiens) (UniProt Q96Q40). Description: Selectivity interaction (KinomeScan (DiscoverX)) EUB0000092b CDK15. The note with it: at 10 µM.
The target in assay [6] is cAMP-dependent protein kinase catalytic subunit beta (Homo sapiens) (UniProt P22694). The assay is described as follows: Selectivity interaction (KinomeScan (DiscoverX)) EUB0000092b PRKACB. The note with it: at 10 µM.
Assay [7] deals with Muscarinic acetylcholine receptor M4 (Homo sapiens) (UniProt P08173). The assay is described as follows: Selectivity interaction (GPCR panel (PDSP screen)) EUB0001079a CHRM4. The note with it: at 10 µM.

SMILES strings stand for the structures.

Muscarinic acetylcholine receptor M4 (Homo sapiens), sequence (P08173 whole entry): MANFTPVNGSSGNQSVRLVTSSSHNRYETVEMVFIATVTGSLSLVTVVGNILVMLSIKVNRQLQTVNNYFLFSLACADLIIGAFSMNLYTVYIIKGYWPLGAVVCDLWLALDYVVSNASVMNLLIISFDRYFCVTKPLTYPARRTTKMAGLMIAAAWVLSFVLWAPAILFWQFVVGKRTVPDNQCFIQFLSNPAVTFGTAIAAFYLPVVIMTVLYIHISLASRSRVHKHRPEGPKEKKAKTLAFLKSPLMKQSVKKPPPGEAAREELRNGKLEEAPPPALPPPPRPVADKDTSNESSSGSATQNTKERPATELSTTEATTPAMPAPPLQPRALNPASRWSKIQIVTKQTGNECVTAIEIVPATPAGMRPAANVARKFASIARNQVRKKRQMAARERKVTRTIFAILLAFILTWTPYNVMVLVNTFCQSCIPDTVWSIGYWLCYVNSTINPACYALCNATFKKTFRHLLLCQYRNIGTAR
Cyclin-dependent kinase 15 (Homo sapiens), sequence (Q96Q40 whole entry): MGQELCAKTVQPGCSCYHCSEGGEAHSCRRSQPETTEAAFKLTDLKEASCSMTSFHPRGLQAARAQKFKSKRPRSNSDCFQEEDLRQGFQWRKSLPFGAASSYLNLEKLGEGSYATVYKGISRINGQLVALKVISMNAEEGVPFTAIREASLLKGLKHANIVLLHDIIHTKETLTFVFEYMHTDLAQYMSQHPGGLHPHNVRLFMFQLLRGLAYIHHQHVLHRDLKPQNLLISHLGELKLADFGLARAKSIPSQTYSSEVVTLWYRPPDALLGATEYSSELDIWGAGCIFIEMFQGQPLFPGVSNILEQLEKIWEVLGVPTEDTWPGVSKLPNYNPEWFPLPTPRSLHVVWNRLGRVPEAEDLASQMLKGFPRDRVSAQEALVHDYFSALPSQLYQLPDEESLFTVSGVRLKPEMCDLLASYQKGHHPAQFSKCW

As to `O=C(NOC[C@H](O)CO)c1ccc(F)c(F)c1Nc1ccc(I)cc1F`, the % of control in assay [1] is 100%.

For `C=CC(=O)Nc1cccc(C(=O)Nc2ccc(Nc3cc(-c4[nH]c(SC)nc4C)ccn3)cc2)c1`, the figures for the % of control in assay [2] (at 1 µM) and in assay [2] (at 5 µM) were 91% and 61%, respectively.

In assay [3], `Cc1cc(CN)cc(C)c1-c1ncn(C)c1-c1cncn1C` came in with a dTM of -1.97 K.

Regarding `O[C@H]1CC[C@H](Nc2ncc3nc(Nc4c(F)cc(F)cc4F)n([C@H]4CCOC4)c3n2)CC1`, in assay [4], the % of control came out at 93%.

For the compound `CCC(=O)N1CCN(c2ccc(-n3c(=O)ccc4cnc5ccc(-c6cnc7ccccc7c6)cc5c43)cc2C(F)(F)F)CC1`, the % of control in assay [5] turned out to be 88%; in assay [6], 100%.

As for `Nc1cnc(N2CCc3cc(S(=O)(=O)Nc4c(F)cc(Cl)cc4F)cc(N4CCCC4=O)c32)nc1` [TP-020n], the % of inhibition in assay [7] came out at 9.99%.
